Measured values reported in the supplement of paper PMC8882468.

Assays:
HCI-001 = organoid from a triple-negative breast cancer xenograft; assay: CTG-3D luminescence at 96 h relative to day-0 seeding control (ratio to day 0); higher = more growth / less cytotoxicity; PDxO 3D drug screen, 96 h, CTG-3D normalised to day-0 seeding control.
HCI-002 = organoid from a triple-negative breast cancer xenograft; assay: as above

C[C@]12CC[C@@H]3c4ccc(O)cc4C[C@@H](CCCCCCCCC[S+]([O-])CCCC(F)(F)C(F)(F)F)[C@H]3[C@@H]1CC[C@@H]2O (some centres not stated) [fulvestrant]
CTG-3D luminescence at 96 h
Conditions | 12.5 pM | 0.00025 µM | 0.005 µM | 0.1 µM | 1 µM | 10 µM | 100 µM | 625 fM
HCI-001, days in culture: 240 | 1.44 | 1.04 | 1.03 | 0.906 | 1.68 | 1.06 | 1.55 | 1.65
HCI-001, days in culture: 260 | 2.56 | 1.23 | 1.9 | 1.86 | 1.59 | 1.46 | 1.1 | 1.68
HCI-001, days in culture: 269 | 1.44 | 1.59 | 1.41 | 1.34 | 1.45 | 1.7 | 1.69 | 1.43
HCI-001, days in culture: 327 | 1.73 | 1.68 | 2.18 | 1.97 | 1.64 | 1.23 | 1.65 | 2.08
HCI-001, days in culture: 346 | 1.34 | 1.3 | 1.11 | 1.33 | 1.42 | 1.16 | 1.38 | 1.11
HCI-001, days in culture: 364 | 1.63 | 1.34 | 1.37 | 0.918 | 0.954 | 1.28 | 1.02 | 1.75
HCI-002, days in culture: 62 | 2.97 | 2.65 | 3.14 | 2.57 | – | – | – | –
HCI-002, days in culture: 82 | 2.97 | 2.85 | 2.4 | 2.79 | – | – | – | –
HCI-002, days in culture: 91 | 3.59 | 3.05 | 2.86 | 3.23 | – | – | – | –
HCI-002, days in culture: 191 | 2.73 | 3.1 | 2.93 | 2.95 | – | – | – | –
HCI-002, days in culture: 209 | 2.15 | 2.27 | 2.46 | 2.23 | – | – | – | –
HCI-002, days in culture: 227 | 5.09 | 4.65 | 4.95 | 5.59 | – | – | – | –
